# Species on record: Rattus norvegicus
# Test: Open TG-GATES - Regimen: Single
# Assay type: toxicity, organism-based, Sprague-Dawley
# Set-up: regimen Single, gender Male, age 6 weeks
# Conditions: in vivo, ip, 1000 mg/kg, route intraperitoneal injection, dose level High; for APTT / Bas / Eos / Fbg / Hb / Ht / Lym / MCH / MCHC / MCV / Mono / Neu / PT / Plat / RBC / Ret / WBC: tissue Blood; for KIDNEY_L / KIDNEY_R / KIDNEY_TOTAL: tissue Kidney; for LIVER: tissue Liver; for A/G / ALP / ALT / AST / BUN / CRE / Ca / Cl / DBIL / GLC / IP / K / LDH / Na / PL / RALB / TBIL / TC / TG / TP / gamma-GTP: tissue Plasma
structure (smiles),measurement,setting,value
N[C@H]1C(O)O[C@H](CO)[C@@H](O)[C@@H]1O (some centres not stated) [GLUCOSAMINE],TERMINAL_BW,3 h,188.7 g
same,APTT,3 h,21 s
same,Bas,3 h,0.2%
same,Eos,3 h,0.8%
same,Fbg,3 h,265 mg/dL
same,Hb,3 h,12.8 g/dL
same,Ht,3 h,39.4%
same,Lym,3 h,73.6%
same,MCH,3 h,21 pg
same,MCHC,3 h,32.4%
same,MCV,3 h,64.9 fL
same,Mono,3 h,3.4%
same,Neu,3 h,21.2%
same,PT,3 h,16.7 s
same,Plat,3 h,106.7 x10_4/uL
same,RBC,3 h,608 x10_4/ul
same,Ret,3 h,9.6%
same,WBC,3 h,92.4 x10_2/uL
same,KIDNEY_L,3 h,0.8 g
same,KIDNEY_R,3 h,0.8 g
same,KIDNEY_TOTAL,3 h,1.6 g
same,LIVER,3 h,8.9 g
same,A/G,3 h,0.9
same,ALP,3 h,1493 IU/L
same,ALT,3 h,50 IU/L
same,AST,3 h,92.6 IU/L
same,BUN,3 h,12 mg/dL
same,CRE,3 h,0.2 mg/dL
same,Ca,3 h,10.6 mg/dL
same,Cl,3 h,110 meq/L
same,DBIL,3 h,0.012 mg/dL
same,GLC,3 h,167.2 mg/dL
same,IP,3 h,7.1 mg/dL
same,K,3 h,3.9 meq/L
same,LDH,3 h,93.4 IU/L
same,Na,3 h,143.4 meq/L
same,PL,3 h,129.4 mg/dL
same,RALB,3 h,2.5 g/dL
same,TBIL,3 h,0.064 mg/dL
same,TC,3 h,71.4 mg/dL
same,TG,3 h,25 mg/dL
same,TP,3 h,5.2 g/dL
same,gamma-GTP,3 h,1 IU/L
same,TERMINAL_BW,6 h,187.1 g
same,APTT,6 h,18.1 s
same,Bas,6 h,0%
same,Eos,6 h,0.2%
same,Fbg,6 h,246.6 mg/dL
same,Hb,6 h,13.4 g/dL
same,Ht,6 h,41.5%
same,Lym,6 h,62.8%
same,MCH,6 h,21 pg
same,MCHC,6 h,32.3%
same,MCV,6 h,65.1 fL
same,Mono,6 h,1.4%
same,Neu,6 h,34.4%
same,PT,6 h,18.9 s
same,Plat,6 h,102.2 x10_4/uL
same,RBC,6 h,637.8 x10_4/ul
same,Ret,6 h,9%
same,WBC,6 h,60.4 x10_2/uL
same,KIDNEY_L,6 h,0.9 g
same,KIDNEY_R,6 h,0.8 g
same,KIDNEY_TOTAL,6 h,1.7 g
same,LIVER,6 h,8.4 g
same,A/G,6 h,0.9
same,ALP,6 h,1303.2 IU/L
same,ALT,6 h,131 IU/L
same,AST,6 h,226.6 IU/L
same,BUN,6 h,12.2 mg/dL
same,CRE,6 h,0.2 mg/dL
same,Ca,6 h,10.3 mg/dL
same,Cl,6 h,107.8 meq/L
same,DBIL,6 h,0.02 mg/dL
same,GLC,6 h,159.4 mg/dL
same,IP,6 h,8.2 mg/dL
same,K,6 h,3.7 meq/L
same,LDH,6 h,316.4 IU/L
same,Na,6 h,142.8 meq/L
same,PL,6 h,125.6 mg/dL
same,RALB,6 h,2.3 g/dL
same,TBIL,6 h,0.072 mg/dL
same,TC,6 h,68.8 mg/dL
same,TG,6 h,17.8 mg/dL
same,TP,6 h,5 g/dL
same,gamma-GTP,6 h,1 IU/L
same,TERMINAL_BW,9 h,182.7 g
same,APTT,9 h,18.9 s
same,Bas,9 h,0%
same,Eos,9 h,0.8%
same,Fbg,9 h,289.2 mg/dL
same,Hb,9 h,13.2 g/dL
same,Ht,9 h,40.3%
same,Lym,9 h,68%
same,MCH,9 h,21.1 pg
same,MCHC,9 h,32.7%
same,MCV,9 h,64.6 fL
same,Mono,9 h,2.2%
same,Neu,9 h,28.2%
same,PT,9 h,17.4 s
same,Plat,9 h,108.7 x10_4/uL
same,RBC,9 h,624.8 x10_4/ul
same,Ret,9 h,9.7%
same,WBC,9 h,63.8 x10_2/uL
same,KIDNEY_L,9 h,0.8 g
same,KIDNEY_R,9 h,0.8 g
same,KIDNEY_TOTAL,9 h,1.6 g
same,LIVER,9 h,7.5 g
same,A/G,9 h,0.9
same,ALP,9 h,1707.4 IU/L
same,ALT,9 h,72.2 IU/L
same,AST,9 h,136.6 IU/L
same,BUN,9 h,9.4 mg/dL
same,CRE,9 h,0.2 mg/dL
same,Ca,9 h,10.3 mg/dL
same,Cl,9 h,108.8 meq/L
same,DBIL,9 h,0.016 mg/dL
same,GLC,9 h,159.6 mg/dL
same,IP,9 h,9.9 mg/dL
same,K,9 h,3.9 meq/L
same,LDH,9 h,111.4 IU/L
same,Na,9 h,143.2 meq/L
same,PL,9 h,142.2 mg/dL
same,RALB,9 h,2.5 g/dL
same,TBIL,9 h,0.07 mg/dL
same,TC,9 h,79.2 mg/dL
same,TG,9 h,22 mg/dL
same,TP,9 h,5.4 g/dL
same,gamma-GTP,9 h,1 IU/L
same,TERMINAL_BW,24 h,192.2 g
same,APTT,24 h,23.1 s
same,Bas,24 h,0.4%
same,Eos,24 h,1.2%
same,Fbg,24 h,165.4 mg/dL
same,Hb,24 h,13.8 g/dL
same,Ht,24 h,42.5%
same,Lym,24 h,63.2%
same,MCH,24 h,21 pg
same,MCHC,24 h,32.5%
same,MCV,24 h,64.6 fL
same,Mono,24 h,4.6%
same,Neu,24 h,28.4%
same,PT,24 h,33.2 s
same,Plat,24 h,109 x10_4/uL
same,RBC,24 h,658 x10_4/ul
same,Ret,24 h,8.6%
same,WBC,24 h,78.4 x10_2/uL
same,KIDNEY_L,24 h,0.9 g
same,KIDNEY_R,24 h,0.9 g
same,KIDNEY_TOTAL,24 h,1.8 g
same,LIVER,24 h,8.1 g
same,A/G,24 h,0.9
same,ALP,24 h,2378 IU/L
same,ALT,24 h,313.8 IU/L
same,AST,24 h,571.6 IU/L
same,BUN,24 h,12.6 mg/dL
same,CRE,24 h,0.2 mg/dL
same,Ca,24 h,10.3 mg/dL
same,Cl,24 h,106.2 meq/L
same,DBIL,24 h,0.2 mg/dL
same,GLC,24 h,147.6 mg/dL
same,IP,24 h,9.3 mg/dL
same,K,24 h,4.2 meq/L
same,LDH,24 h,727.6 IU/L
same,Na,24 h,143.2 meq/L
same,PL,24 h,99.6 mg/dL
same,RALB,24 h,2.3 g/dL
same,TBIL,24 h,0.3 mg/dL
same,TC,24 h,51.6 mg/dL
same,TG,24 h,25.2 mg/dL
same,TP,24 h,4.9 g/dL
same,gamma-GTP,24 h,1.2 IU/L

# — ChEMBL document CHEMBL3885861, “Open TG-GATES”
